The text below walks through data of US20110319338A1, “PEPTIDES THAT BIND EUKARYOTIC TRANSLATION INITIATION FACTOR 4E” (The Board of Regents of the University of Texas System, priority 2008, published 2011).

One data set deals with ES-2-GFP cells. The data set is described as follows: Mouse i.p. xenograft model of epithelial ovarian cancer. The data set is classed as in vivo. The following applies: for Deaths (died before completing treatment regimen) / Drop-outs (euthanized prior to completion due to morbidity related to ascites accumulation): of 11 mice per group. As for the experimental part:
FIGS. 4A-4C. Anti-tumor activity of [DLys6]GnRH-4EBP1-WT peptide in a xenograft model of EOC. Female nude mice were inoculated i.p. with one million ES-2-GFP cells. At Day 9 after tumor cell inoculation, one group of mice (n=5) was sacrificed (pre-treatment). At Day 9, other groups of mice were administered by i.p. injection with saline (n=11), [DLys6]GnRH (n=11) or [DLys6]GnRH-4EBP1-WT (n=11) at a dose of 3.0 nanomoles per gram body weight Saline or peptide was administered every 2 days thereafter for 11 days (6 doses in total), and mice were sacrificed on Day 20. (FIG. 4A) Visualization under a fluorescence stereoscope of i.p. tumors in pre-treatment mice (at Day 9) including implants on the omentum (ome), and in mice treated with saline, with agonist alone and with [DLys6]GnRH-4EBP1-WT (at Day 20). (FIG. 4B) Hematoxylin eosin-stained sections of tissues of pre-treatment mice (at Day 9) and of saline- and peptide-treated mice (at Day 20). Tumors attached to the omentum extensively involved the pancreas in saline- and agonist-treated mice. Also shown are tumors attached to the broad ligament and mesentery. Bar, 200 micrometers. (FIG. 4C) Quantification of i.p. tumor burden in pre-treatment and treated mice that completed the regimen, expressed as the average percent of area of fluorescence within the abdominal cavity in captured images, and volume of ascites. Median values of tumor burden and ascites volume for each group and statistical significance of differences between groups are indicated.
(§1) Animal Studies. Animal studies were approved by the Institutional Animal Care and Use Committee. The ES-2 cell line stably expressing enhanced green fluorescent protein (ES-2-GFP) has been described in previous work (Hara et al., 2007). Four-week-old female nude mice were inoculated i.p. at one site in the lower abdomen with 10^6 ES-2-GFP cells. At Day 9 after tumor cell inoculation, one group of mice (n=5) were killed by CO2 asphyxiation. At Day 9, other groups of mice were administered by i.p. injection with 200 microliters of phosphate-buffered saline (PBS) (n=11), [DLys6]GnRH (n=11) or [DLys6]GnRH-4EBP1-WT peptide (n=11) at a dose of 3.0 nanomoles per gram body weight. Peptides were suspended in PBS and administered at a volume of 200 microliters. PBS or peptide was administered every 2 days thereafter for 11 days (6 doses in total). Mice were sacrificed on Day 20, and ascites harvested. Tumors were visualized under a Leica MZML III fluorescence stereomicroscope equipped with mercury lamp power supply and green fluorescent protein (GFP) filter set. Tumor burden was quantified by measuring areas of fluorescence signals within the abdominal cavity in captured images by using Image Pro Plus 5.0 software (Media Cybernetics, Bethesda, Md.). Slides of paraffin-embedded tissues collected from mice were stained with hematoxylin-eosin. TUNEL-staining of tissue sections was performed using the in situ cell death detection kit (Roche).
To determine the efficacy of [DLys6]GnRH-4EBP1-WT peptide in vivo, a mouse i.p. xenograft model was used that was established from an ES-2 cell line stably expressing GFP (Hara et al., 2007). This model mimics the typical behavior of epithelial ovarian cancer, including i.p. dissemination and ascites formation. This example comprised three treatment groups of mice i) saline, ii) [DLys6]GnRH agonist, and iii) [DLys6]GnRH-4EBP1-WT, where sample size of each group was n=11. The first dose of peptide or saline was administered i.p. to mice at Day 9 after tumor cell inoculation. At Day 9, no ascites had yet formed but tumors had established on the omentum, broad ligament and mesentery which are common sites of ovarian cancer cell attachment (FIGS. 4A,B). A schedule in which peptide was administered every 2 days was chosen, based on the studies of peptide stability in serum (FIG. 6).
Based on studies of other agonist conjugates in xenograft models (19-21), a peptide dose of 3.0 nanomoles per gram body weight was used. […]

Data set [1] is described as follows: Peptide stability in serum and in culture medium (Western blot, MALDI TOF). The data set is classed as in vitro ADME. To be noted: human, serum (undiluted, of an ovarian cancer patient), 37° C. As for the experimental part: FIGS. 6A-6B. Stability of [DLys6]GnRH-4EBP1 peptide. Biotinylated peptide was added to McCoys' 5A medium containing 10% fetal bovine serum (FBS), and to human serum. Samples were immediately withdrawn (0 hours). The remaining mixtures were incubated at 37° C., and samples taken thereafter at 1, 3, 6, 12 and 24 hours. In (FIG. 6A), samples were analyzed by Western blot using horseradish peroxidase-conjugated strepatavidin. In (FIG. 6B), samples of peptide incubated in serum for 0, 12 and 24 hours were analyzed by Matrix Assisted Laser Desorption Ionization-Time of Flight (MALDI TOF) mass spectrometry. Peaks corresponding to intact peptide (mass: 3990) are indicated. Peaks of 1256, 1684 and 3384 in mass are likely to represent degradation products of the peptide.
Peptide stability studies. Biotinylated peptide (7 micrograms) was mixed with McCoys' 5A medium containing 10% FBS in a final volume of 140 microliters. A sample of 20 microliters was immediately removed and frozen. The remaining mixture was incubated at 37° C., and 20 microliters samples taken thereafter at 1, 3, 6, 12 and 24 hours. […] Samples were analyzed by Western blot using horseradish peroxidase-conjugated strepatavidin, and by MALDI TOF mass spectrometry using an Applied Biosystems 4700 Proteomic Analyzer.
A general note: A western blot detects proteins with antibodies after separation by electrophoresis.

The nature of data set [2]: Tolerability in xenograft mice: observation, histology and TUNEL-staining of tissues. Type of data set: in vivo.
From the text: FIGS. 11A-11B. TUNEL-staining of tissues of saline- and peptide-treated mice. […] Shown are normal tissues of the brain, heart, lung, liver, breast, pancreas and ovary, and tumor implants on the omentum. Bar, 60 micrometers. Pancreatic and ovarian sections show normal pancreatic (P) and ovarian (O) tissues plus adjacent tumor (T). Also shown are normal tissues of the pituitary and bone marrow. Bar, 20 micrometers
as §1

The next data set relates to luteinizing hormone (LH). The experiment in a line: Assay of serum LH levels by radioimmunoassay. To be noted: serum collected at end of regimen (Day 20).
Data set [3] can be described thus: Mouse serum antibody assays. The data set is classed as in vivo, mice. To be noted: serum 1:100 dilution. As to the method: FIGS. 12A-12C. Serum luteinizing hormone (LH) levels and serum antibody reactivity.
Mouse serum antibody assays. Wells in 96-well plates were coated with 50 nanograms of [DLys6]GnRH-4EBP1-WT peptide or with 100 nanograms of ES-2 cell lysate. Serum of saline- and peptide-treated mice (1:100 dilution) was incubated in wells for 2 hours at room temperature. Bound IgG was detected using horseradish peroxidase-conjugated goat anti-mouse IgG, and measured at an optimal density of 450 nm.

“Also recorded” adds a separate entry of the source. Square brackets hold non-standard residues; d marks the D form. Peptide text beside a SMILES is read from it. pGlu = O=C1CC[C@@H](C(=O)O)N1

From the text for luteinizing hormone (LH): Assay of serum LH levels.

Take `CC[C@H](C)[C@H](NC(=O)[C@H](CCCNC(=N)N)NC(=O)[C@@H](NC(=O)CNC(=O)CNC(=O)[C@@H]1CCCN1C(=O)[C@H](CCCNC(=N)N)NC(=O)[C@H](CC(C)C)NC(=O)[C@@H](CCCCN)NC(=O)[C@H](Cc1ccc(O)cc1)NC(=O)[C@H](CO)NC(=O)[C@H](Cc1c[nH]c2ccccc12)NC(=O)[C@H](Cc1c[nH]cn1)NC(=O)[C@@H]1CCC(=O)N1)[C@@H](C)O)C(=O)N[C@H](C(=O)N[C@@H](Cc1ccc(O)cc1)C(=O)N[C@@H](CC(=O)O)C(=O)N[C@@H](CCCNC(=N)N)C(=O)N[C@@H](CCCCN)C(=O)N[C@@H](Cc1ccccc1)C(=O)N[C@@H](CC(C)C)C(=O)N[C@@H](CCSC)C(=O)N[C@@H](CCC(=O)O)C(=O)N[C@@H](CS)C(=O)N[C@@H](CCCNC(=N)N)C(=O)N[C@@H](CC(N)=O)C(=O)N[C@@H](CO)C(=O)N1CCC[C@H]1C(=O)N[C@H](C(=O)N[C@H](C(=O)O)[C@@H](C)O)C(C)C)[C@@H](C)CC` [[DLys6]GnRH-4EBP1-WT] ([pGlu]HWSY[dK]LRPGGTRIIYDRKFLMECRNSPVT-OH): the “Mice euthanized, day” value in the data set with ES-2-GFP cells (drop-out mice, individual animals) was “n = 1, day 15; also recorded: n = 1, day 17”. The “day of death before completing treatment regimen” value in the data set with ES-2-GFP cells (mouse, in vivo) is 19 days. Further, in the data set with ES-2-GFP cells, the “Deaths (died before completing treatment regimen)” value is reported as 1 and the “Drop-outs (euthanized prior to completion due to morbidity related to ascites accumulation)” value stood at 2. Besides, in the data set with ES-2-GFP cells (listed as [DLys6]GnRH-4EBP-WT), the “Deaths (died before completing treatment regimen)” value was “one” and the “Drop-outs (euthanized prior to completion due to morbidity related to ascites accumulation)” value was “two”. Besides, the half-life in data set [1] lay within 5 to 6 h. Further, in data set [2] (Day 20), the “TUNEL-positive cells in other normal tissues (brain, heart, lung and bone marrow)” value is given as “not detected”; the TUNEL-staining in ovaries result is “some staining was observed”; the “TUNEL-staining of cells of the liver and pancreas” value is listed as “TUNEL-negative”. The “TUNEL-staining in breast and pituitary tissues” value in data set [2] (Day 20, tissues that express GnRH-RI) is “No TUNEL-staining was detected”. In the data set on luteinizing hormone (LH), the “serum LH levels compared with saline-treated mice” value is “not significantly different”. In addition, in data set [3], the “mice with antibody reactivity to [DLys6]GnRH-4EBP1-WT at least two standard deviations above mean background in saline-treated mice” value was 2 of 8.

The term half-life denotes the time needed for the level to fall by half in the phase considered. Read a high half-life as slow decline.
